Experimental data reported in patent US20200062776A1, “HEDGEHOG ACYLTRANSFERASE INHIBITORS AND USES THEREOF” (Memorial Sloan-Kettering Cancer Center, priority 2016, published 2020).

Legend:
H1703 oncospheres = test: H1703 oncosphere growth, 10 days, EZQuant; format: cell-based, human; conditions: for cell count of H1703 oncospheres: compounds replenished every 2 days
Method: Duplicate wells were treated with the indicated concentrations of compound for 10 days. Compounds were replenished in the media every 2 days. Cell number was quantified at Day 10 using EZQuant (Alstem).

Hhat = Hhat (Homo sapiens, UniProt Q5VTY9); test: Hhat-mediated Shh palmitoylation in COS-1 cells transfected with Shh and Hhat ([125I]-iodopalmitate labeling); format: cell-based; parameters: dose or concentration left out as unconfirmed; conditions: 4 hr labeling at 37° C.
Method: FIGS. 1A-1B. […] FIG. 1A. COS-1 cells were transfected with cDNA plasmids encoding Shh and Hhat (see, e.g., Buglino, J. A., and Resh, M. D. “Hhat is a palmitoyl acyltransferase with specificity for N-palmitoylation of sonic hedgehog” J. Biol. Chem. 2008, 283, 22076-22088; Petrova, E., Rios-Esteves, J., Ouerfelli, O., Glickman, J. F., and Resh, M. D. “Inhibitors of Hedgehog acyltransferase block Sonic Hedgehog signaling” Nat Chem Biol 2013, 9, 247-249). 48 hours after transfection, cells were starved for 1 hour in DMEM containing 2% dialyzed fetal calf serum and then labeled for 4 hr at 37° C. with […] [^125I]-iodopalmitate in the presence of […] of the indicated compound or DMSO. Cell lysates were immunoprecipitated with anti-Shh antibody, analyzed by SDS-PAGE and dried gels were subjected to Phosphorimaging. The amount of radiolabel incorporated into Shh was quantified and compared to that obtained for DMSO (normalized to 1.0). % Inhibition=1−(signal in drug treated sample/signal in DMSO sample)×100. FIG. 1B. Structure of RU-SKI 43 (see, e.g., Petrova, E., Rios-Esteves, J., Ouerfelli, O., Glickman, J. F., and Resh, M. D. “Inhibitors of Hedgehog acyltransferase block Sonic Hedgehog signaling” Nat Chem Biol 2013, 9, 247-249).

[1] = system: AsPC1 human pancreatic cancer cells; test: AsPC1 cell growth, 24-well plates, 6 days, Crystal violet staining; format: cell-based; conditions: ASPC1, 144 h, FIG. 2D inhibition curve
Method: FIGS. 2A-2D show inhibition of the growth of AsPC1 cells by TDI compounds. […] Compounds were added on Day 0, and were replenished in the media every 2 days. Each condition was represented by duplicate wells. Cell number was quantified by Crystal violet staining. FIG. 2A. Growth curve. FIG. 2B. Crystal violet staining of a typical set of 6 wells. FIG. 2C. Bar graph depicting % inhibition of cell proliferation at Day 6 for each compound, compared to DMSO treated cells. % Inhibition was calculated as in FIG. 1A.

purified Hhat = biological target: T1, purified Hhat (Homo sapiens, UniProt Q5VTY9); test: Pulldown assay: purified Hhat + 125I-palmitoyl CoA + Shh peptide; format: biochemical; conditions: 1 hr at 20° C.; read-out: IC50, Shh palmitoylation by purified Hhat
T1 construct: HA; made in house; host or cells: 293FT cells
Method: FIG. 3. TDI-003410 inhibits Shh palmitoylation by purified Hhat. Pulldown assay: Purified Hhat+^125I-palmitoyl CoA+Shh peptide. […] Hhat was purified to homogeneity from 293FT cells transfected with a cDNA encoding HA-tagged Hhat, as described by Buglino and Resh (see, e.g., Buglino, J. A., and Resh, M. D. “Hhat is a palmitoyl acyltransferase with specificity for N-palmitoylation of sonic hedgehog” J. Biol. Chem. 2008, 283, 22076-22088). Purified Hhat was incubated with ^125I-Iodopalmitoyl CoA and a C-terminally biotinylated Shh peptide (representing the first 10 amino acids of mature Shh) for 1 hr at 20° C. in the presence of the indicated concentrations of TDI-3410. The reaction was quenched, and biotinylated peptides were captured on streptavidin-agarose beads by repeated centrifugation and washing. The amount of 125 radioactivity remaining in the bead pellet was determined in a g counter. % Inhibition was calculated as in FIG. 1A.

membrane-bound Hhat = biological target: T2, membrane-bound Hhat (Homo sapiens, UniProt Q5VTY9); test: Shh palmitoylation by membrane-bound Hhat (P100 membranes, SPA); format: biochemical; conditions: 1 hr at 20° C., triplicate
T2 construct: HA; expressed in transfected cells; host or cells: 293FT cells (P100 microsomal membranes)
Method: Microsomal membranes (P100) were prepared from 293FT cells transfected with a cDNA encoding HA-tagged Hhat as described (see, e.g., Buglino, J. A., and Resh, M. D. “Hhat is a palmitoyl acyltransferase with specificity for N-palmitoylation of sonic hedgehog” J. Biol. Chem. 2008, 283, 22076-22088; Petrova, E., Rios-Esteves, J., Ouerfelli, O., Glickman, J. F., and Resh, M. D. “Inhibitors of Hedgehog acyltransferase block Sonic Hedgehog signaling” Nat Chem Biol 2013, 9, 247-249). The protocol described by Petrova et al. (Nat Chem Biol 2013, 9, 247-249) was used to analyze Shh palmitoylation. Briefly, P100 membranes were incubated with ^125I-Iodopalmitoyl CoA and a C-terminally biotinylated Shh peptide in 384-well plates in the presence of the indicated concentrations of TDI-3410 for 1 hr at 20° C. Biotinylated peptides were captured on streptavidin-coated SPA (Scintillation Proximity Assay) beads and the amount of ^125I radioactivity was quantified on a Perkin-Elmer Trilux reader. Each data point represents the average of triplicate samples. % Inhibition was calculated as in FIG. 1A.

[2] = system: AsPC1 human pancreatic cancer cells; test: AsPC1 cell growth, 96-well plates, 6 days, EZQuant; format: cell-based; conditions: 750 cells/well
Method: (§1) AsPC1 human pancreatic cancer cells (FIG. 5A) or T47D human breast cancer cells (FIG. 5B) were seeded at 750 cells/well in 96 well plates and grown for 6 days in the presence of the indicated concentrations of TDI-3410 or DMSO. Compounds were added on Day 0, and were replenished in the media every 2 days. Each condition was represented by duplicate wells. Cell number was quantified at Day 6 using EZQuant (Alstem).

[3] = system: T47D human breast cancer cells; test: T47D cell growth, 96-well plates, 6 days, EZQuant; format: cell-based; conditions: 750 cells/well
Method: as §1

HeLa cells = test: HeLa cell proliferation, 24-well plates, EZQuant; format: cell-based; parameters: effect on proliferation of HeLa cells: dose or concentration left out as unconfirmed
Method: 24-well plate; Drugs replenished every 2 days; viable cells quantified with EZQuant; STS=Staurosporine, a positive control for cell killing. […] HeLa cells were seeded at 0.5×10^5 cells/well in 24-well plates and proliferation was assayed as described for FIG. 5. Each compound was present […].

[4] = system: oncospheres derived from AsPC-1 human pancreatic cancer cells; test: AsPC-1 oncosphere growth, 7 days, EZQuant; format: cell-based; conditions: ASPC1, drug replenished every 2 days, read-out: IC50, cell proliferation of AsPC-1 oncospheres
Method: AsPC-1 pancreatic cancer cells were grown on ultra-low attachment plates for 7-10 days in serum-free medium containing EGF, FGF, Insulin and N-2 and B-27 supplement to form oncospheres, which represent cancer stem cells. Oncosphere cultures were expanded and replated, and were used after 7 days in 2° culture. Oncospheres grown in 24-well plates were treated with TDI-3410 or vehicle; drug was replenished every 2 days. 7 days later, oncospheres were dissociated with trypsin and total viable cell number was determined using EZQuant.

T1 sequence (Q5VTY9 whole entry): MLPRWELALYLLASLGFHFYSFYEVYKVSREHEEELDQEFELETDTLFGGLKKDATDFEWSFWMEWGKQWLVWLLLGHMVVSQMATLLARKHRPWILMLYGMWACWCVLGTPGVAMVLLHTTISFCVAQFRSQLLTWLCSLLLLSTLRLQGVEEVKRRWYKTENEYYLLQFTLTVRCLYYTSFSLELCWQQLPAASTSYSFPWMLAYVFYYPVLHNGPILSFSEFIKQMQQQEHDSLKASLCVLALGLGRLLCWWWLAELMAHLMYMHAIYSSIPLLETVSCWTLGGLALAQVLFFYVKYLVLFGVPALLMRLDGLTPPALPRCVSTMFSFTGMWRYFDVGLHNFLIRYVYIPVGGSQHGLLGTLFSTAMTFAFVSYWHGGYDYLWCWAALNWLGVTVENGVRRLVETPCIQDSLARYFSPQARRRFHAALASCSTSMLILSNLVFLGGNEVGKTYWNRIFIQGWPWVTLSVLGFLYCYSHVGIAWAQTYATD
Chain of Hhat (Q5VTY9 whole entry): as above
T2 sequence (Q5VTY9 whole entry): as above

SMILES	cell count of H1703 oncospheres (H1703 oncospheres)	Hhat-mediated Shh palmitoylation (Hhat)	IC50 [1] [nM]	IC50 (purified Hhat) [nM]	IC50 (membrane-bound Hhat) [nM]	growth of AsPC1 human pancreatic cancer cells [2]	growth of T47D human breast cancer cells [3]	concentration above which growth of HeLa cells is inhibited (HeLa cells; FIG. 6B) [µM]	effect on proliferation of HeLa cells (HeLa cells; HeLa cells express no detectable Hhat)	IC50 (HeLa cells; Homo sapiens, HeLa, FIG. 6B inhibition curve, read-out: IC50, growth of HeLa cells) [nM]	IC50 (H1703 oncospheres; Homo sapiens, NCI-H1703, 240 h) [nM]	IC50 [4] [nM]
CCC(C)CNCC(=O)N1CCc2sccc2C1COc1cccc(C)c1 (stereo not shown) [RU-SKI 43, reference compound]	reduction in cell count with increased concentration											
O=C(c1ccc2nccn2c1)N1CCc2sc(Cl)cc2[C@H]1c1ccc(F)cc1 [TDI-003410]	reduction in cell count with increased concentration	blocks Hhat-mediated Shh palmitoylation	2680	1500	1780	inhibits the growth	inhibits the growth	> 20	little to no effect	28500	1400	1800
